Results on nine compounds are retold here after paper PMC6332510, “Leishmanicidal Activity of (+)-Phyllanthidine and the Phytochemical Profile of Margaritaria nobilis (Phyllanthaceae)” (Molecules, 2015).

In data set [1] the test system is Leishmania (L.) amazonensis amastigotes. The experiment in a line: Anti-amastigote assay in infected peritoneal macrophages. It counts as cell-based. Particulars: for parasite (amastigote) reduction: infected macrophages, vs untreated cells. The procedure: (§1) Macrophages were obtained from the peritoneal cavity of male mouse BALB/c (Mus musculus), and the animals were sacrificed in a CO2 chamber (Insight®). The material was harvested with Hank’s solution, concentrated by centrifugation at 4 °C, cultured in a 24-well plate and incubated in an atmosphere containing 5% CO2 at 37 °C for 1 h. After that, non-adherent cells were washed with DMEM and incubated for 24 h with DMEM medium supplemented with 10% FBS. The experimental protocol was approved by the Committee on the Ethics of Animal Experiments (CEPAE, grant number 046-2015) of Universidade Federal do Pará.
Adherent peritoneal macrophages were infected with Leishmania (L.) amazonensis promastigotes (stationary growth phase) at a parasite/macrophage ratio of 10:1 and incubated for 3 h at 37 °C and 5% CO2. After 3 h, free parasites were removed by washing with PBS pH 7.2, and the cultures were treated with 50 and 100 µg/mL (+)-phyllanthidine for 48 h post infection, without replacing the culture medium. The cells were washed with PBS pH 7.2, fixed with methanol and stained with Giemsa. The number of parasites was determined by examining three cover slips for each treatment. At least 100 infected macrophages were counted, and the results were expressed as the survival percentage, in comparison with controls. Amphotericin B (0.5 µg/mL) was used as a positive control. The selectivity index (SI) was calculated as the ratio between the cytotoxicity and antiparasitic activity against intracellular amastigotes.

Data set [2] deals with Leishmania (L.) amazonensis promastigotes. The data set is described as follows: Anti-promastigote assay (MTT). The data set is classed as cell-based. The method, then:
Promastigotes from Leishmania (L.) amazonensis (MHOM/BR/26361) were obtained in NNN (Neal, Novy and Nicolle) medium from the Instituto Evandro Chagas and subsequently maintained in RPMI medium supplemented with 10% heat-inactivated fetal bovine serum (FBS) at 25 °C.
Leishmania (L.) amazonensis promastigotes (10^6 parasites/mL) were seeded in 24-well plates with RPMI medium without phenol, the medium was supplemented with 10% FBS, and the cells were then treated with different concentrations of (+)-phyllanthidine (10, 20, 50, 100 and 200 µg/mL). The cultures were incubated at 25 °C for 4 days without medium replacement. Every 24 h, aliquots were harvested and promastigotes were incubated with 20 µL of MTT (2 µg/mL) for 4 h. Then, 20 µL of DMSO was added to the wells, and the plate was allowed to shake for 30 min for complete solubilization. One known anti-leishmanial drug (Amphotericin B—0.5 µg/mL) was used as a positive control.

Another data set concerns peritoneal macrophages. The experiment in a line: Cytotoxicity assay of host cells (MTT). The following applies: 10-200 µg/mL, 48 h. The data set is classed as cell-based, mouse BALB/c (Mus musculus). The method, then: as §1
(§2) MTT is a tetrazolium salt that is converted into blue formazan crystals that are insoluble in water after cleavage by mitochondrial dehydrogenases, which causes them to accumulate in viable cells. The procedure was performed according to Fotakis and Timbrell (2006), with some modifications. Macrophages treated with 10, 20, 50, 100 and 200 µg/mL of (+)-phyllanthidine for 48 h and untreated cells were incubated with MTT (0.5 mg/mL) dissolved in phosphate-buffered saline (PBS), pH 7.2 for 3 h in a humidified atmosphere containing 5% CO2 at 37 °C. […] The absorbance of each solution was recorded at an optical density (OD) of 570 nm using a spectrophotometer (Bio-Rad Model 450 Microplate Reader). The assay specificity was determined by using non-viable cells treated with 10% formaldehyde in PBS. […]

Data set [3] is described as follows: Cytotoxicity assay of host cells (MTT). It counts as cell-based, mouse BALB/c (Mus musculus). Particulars: male, BALB/c, mouse, peritoneal macrophages. The method, then:
as §1, §2

Data set [4] concerns Leishmania (L.) amazonensis promastigotes. The experiment in a line: Ultrastructural assay (SEM and TEM). The data set is classed as cell-based. The method, then: Scanning Electron Microscopy (SEM): Promastigotes were treated with 50 and 100 µg/mL of (+)-phyllanthidine for 4 days, and they were fixed with paraformaldehyde (4%) and glutaraldehyde (2.5%) in cacodylate buffer (0.1 M) for one hour. The cells were post-fixed in osmium tetroxide (1%), dehydrated in graded ethanol, brought to their critical point with CO2, coated with gold and analyzed in a Zeiss LEO 1450VP SEM (Göttingen, Germany).
Transmission Electron Microscopy (TEM): Promastigotes treated with 50 and 100 µg/mL (+)-phyllanthidine for 4 days were fixed with glutaraldehyde (2.5%) and paraformaldehyde (4%) in cacodylate buffer (0.1 M) for one hour. The parasites were post-fixed in an osmium tetroxide solution (1%) and ferrocyanide (0.8%), dehydrated in graded acetone and embedded in epoxy resin. Ultrathin sections were obtained, stained with uranyl acetate/lead citrate and examined with a Zeiss 906E TEM (Göttingen, Germany).

A further data set relates to L. major-infected cell. The arrangement: method as in PMID 16143535. The following applies: compared with non-infected conditions; cited from earlier work.
Data set [5] relates to L. (V) braziliensis promastigote forms. Details: method as in PMID 19489596. Particulars: cited from earlier work.
Data set [6] deals with L. (V.) peruviana promastigote forms. Details: method as in PMID 19489596. Particulars: cited from earlier work.
A further data set deals with L. mexicana. The arrangement: method as in doi:10.1080/13880200600878361. Particulars: cited from earlier work.
The test system of a further data set is Leishmania amazonensis. The arrangement: method as in PMID 19748254. Particulars: cited from earlier work.
A further data set concerns L. braziliensis. Details: method as in PMID 19748254. Particulars: cited from earlier work.
Data set [7] has as its system Leishmania infected-macrophages. The arrangement: method as in PMID 18164321. Particulars: 250 μM; cited from earlier work.
For data set [8], the system named is L. (L.) amazonensis amastigote form. The arrangement: method as in PMID 20661748. The following applies: 79 μM, 72 h; cited from earlier work.
Data set [9] has as its system L. (L.) amazonensis promastigote. Particulars: 72 h of treatment; cited from earlier work.

“And” between values parts separate entries of the source, which are not always exact repeats. Equal entries are not always repeated. “Also recorded” adds a separate entry of the source.

By IC50 is commonly meant the concentration at which inhibition is half-maximal. A word on the inhibition: it is how much of the control response was suppressed. By CC50 is commonly meant the concentration that lowers cell viability or growth by half. A low value points to greater toxicity to the cells. Take `O=C1C=C2C=CC3CC2(O1)C1CCCCN1O3` (single isomer, unassigned; (+)) [(+)-phyllanthidine]: the “parasite (amastigote) reduction” value in data set [1] (50 μg/mL, 48 h) came out at 75.5%; in data set [1] (100 μg/mL, 48 h), 83.96%. Besides, the IC50 in data set [1] (Leishmania, Peritoneal macrophage, 48 h of treatment) was 49.1 µg/mL and 210 µM; in data set [2] (Leishmania, 96 h, 96 h of treatment), 82.4 µg/mL and 353 µM. Further, the “selectivity index (SI)” value in [1] (ratio between cytotoxicity (macrophages) and activity against intracellular amastigotes) was determined as 25.08. Moreover, the inhibition at 100 µg/mL in data set [2] (Leishmania, 100 µg/mL, 96 h of treatment, read-out: inhibition of promastigote growth) was found to be 67.7%. In addition, in the data set on peritoneal macrophages, the “cytotoxic effect on macrophages” value is “no cytotoxic effects on macrophages; also recorded: No cytotoxic effect was detected”. The compound further had a CC50 at 48 h in [3] above 200 µg/mL. In addition, the “promastigote ultrastructural changes (TEM)” value in data set [4] (50 µg/mL, 96 h) is on record as “kinetoplast swelling”; in data set [4] (100 µg/mL) it was “increase in the number of acidocalcisome-like structures”.
On to `C[C@@H]1[C@H](O)[C@@H](C)/C=C/C=C/C=C/C=C/C=C/C=C/C=C/[C@H](O[C@@H]2O[C@H](C)[C@@H](O)[C@H](N)[C@@H]2O)C[C@@H]2O[C@](O)(C[C@@H](O)C[C@@H](O)[C@H](O)CC[C@@H](O)C[C@@H](O)CC(=O)O[C@H]1C)C[C@H](O)[C@H]2C(=O)O` [Amphotericin B, reference compound], for which the “amastigote reduction (positive control)” value in data set [1] (0.5 µg/mL (0.54 µM), 48 h) is 90.42%. In addition, the “reduction of promastigotes (positive control)” value in data set [2] (0.5 μg/mL (0.54 µM), 96 h) amounted to 100%.
As for `O=C(O[C@@H]1O[C@@H]2COC(=O)c3cc(O)c(O)c(O)c3-c3c(cc(O)c(O)c3O)C(=O)O[C@H]([C@H]1O)[C@@H]2O)c1cc(O)c(O)c(O)c1` [Corilagin, corilagin], the “iNOS and cytokine mRNA levels” value in the data set with L. major-infected cell was “capable of enhancing the iNOS and cytokine mRNA levels”.
Consider `O=c1c(O)c(-c2ccc(O)cc2)oc2cc(O)cc(O)c12` [Kaempferol, kaempferol], for which the leishmanicidal activity result in [5] and in [6] was “showed leishmanicidal activity” each time.
Take `COC(=O)c1cc(O)c(O)c(O)c1` [Methyl galate, methyl gallate]: the IC50 with L. mexicana is 33.6 µM.
Consider `C=C(C)[C@@H]1CC[C@]2(C(=O)O)CC[C@]3(C)[C@H](CC[C@@H]4[C@@]5(C)CC[C@H](O)C(C)(C)[C@@H]5CC[C@]43C)[C@@H]12` [betulinic acid], for which the antiprotozoal activity result in the data set with Leishmania amazonensis and in the data set with L. braziliensis was “No antiprotozoal activity” throughout.
`O=C(O)c1cc(O)c(O)c(O)c1` [gallic acid]: in data set [7], the NO-production result is recorded as “modest NO-production” and the parasite viability result is “did not reduce parasite viability”.
On to `CCC(C)C(=O)NC1CCC(=O)N(CCc2ccccc2)C1=O` (centres unmarked) [julocrotine], for which the “reduction of amastigote form” value in data set [8] is on record as 80%. Further, the reduction in promastigotes in data set [9] was 54%.
On to `CCCCCCCCCCCCCCCCOP(=O)([O-])OCC[N+](C)(C)C` [miltefosine, reference compound], for which, in the data set on L. mexicana, the IC50 was 0.5 µM.
